# Results published in patent US9040714B2 (MannKind Corporation, priority 2010, dated 2015).
# Test system: XBP-1 splicing in liver and kidney
# Assay: XBP-1 splicing inhibition in livers and kidneys of mice after tunicamycin
# Format: in vivo, CB17 SCID mice
# Conditions: 1 mg/kg IP, relative to PBS treated mice
# From the text: The preclinical validation strategy employs a set of animal models representing normal tissues under chemical stress and multiple myeloma xenography. The normal animal model is employed as a surrogate model where dose-related on-target activity of compounds can be confirmed in tissues sensitive to standard UPR inducing agents such as tunicamycin (Wu et al., Dev Cell. 2007 September; 13 (1d):351-64). […] Upon induction with tunicamycin, tissues induce active XBP-1 mRNA, splicing, and this activity is suppressed by IRE-1α inhibitors. This on-target ER stress animal model is a useful screening and early pharmacokinetic tool.
# CB17 SCID mice were treated with 1 mg/kg tunicamycin by intraperitoneal (IP) injection at time 0 (T=0). Two hours later, compound A formulated in 10% hydroxy beta propyl cyclo dextran HBPCD was administered by IP injection. Doses were 50 mg/kg, 25 mg/kg and 10 mg/kg (4 mice in each group). Mice were sacrificed two hours later (4 hours from T=0), and the designated organs were harvested (FIG. 3A).
# RT-PCR analysis was performed using murine-specific XBP-1 primers from total RNA harvested from specified organs. […] Each lane represents an individual mouse where RNA was harvested and RT-PCR was performed. Method of RNA extraction and RT-PCR analysis is described in Volkmann et al., J. Biol. Chem. 286, 12743-55, 2011. […]
substance,measurement,value
tunicamycin,induction of XBP-1 spliced (XBP-1s),induces XBP-1 spliced (XBP-1s)
